Source: patent US20180153826A1, “MATERIALS AND METHODS FOR THE TREATMENT OF CYSTIC FIBROSIS” (UNIVERSITY OF FLORIDA RESEARCH FOUNDATION, INC., priority 2015, published 2018)

Experiments:
[1] = system: cAMP-dependent HCO3^− secretion; test: Cyclic nucleotide (cAMP)-dependent HCO3^− secretion, lumen Cl^−/SCFA-free; design: species or system rat
Method: Stripped mucosal sheets were mounted into Ussing chambers (window area=0.3-0.5 cm^2, Physiologic Instruments, San Diego, Calif.). The mucosal side of tissue was bathed with an unbuffered HCO3^--free Cl^- Ringer solution (see Table 2 for detailed composition) circulated by a gas lift with 100% O2 while the serosal side was bathed with buffered Cl^- Ringer solution (pH 7.4) that contained 25 mM HCO3^- and gassed with 5% CO2/95% O2. Each side contained 3-5 ml of solution and the temperature of the solution was adjusted to and maintained at 37° C. by heated water-jacketed reservoirs. Experiments were performed under short-circuit conditions (Voltage-Current Clamp, VCC MC8; Physiologic Instruments, San Diego, Calif.) to maintain the transepithelial potentials at 0 mV, except for brief interruption at 20-second intervals for recording of open-circuit potential (VT, mV). Two types of approaches were used in the measurement of colonic HCO3^- secretion, namely, measurement of lumen pH or pH stat titration of net alkalinization by colonic mucosa. […] Radiometer Analytical, Villeurbanne, France). The amount of the acid delivered per unit time per surface area was used to quantitate HCO3^- secretion by the mucosa. Measurements were recorded continuously and mean values for consecutive 5 or 10 min periods were averaged. […] The short-circuit current (Isc) was measured in microamperes (μA) and converted into μEq/hr/cm^2. Tissue resistance (R, Ω cm^2) was calculated from Ohm's law. Colon segments were prepared and treated as in the secretagogue-induced HCO3^- secretion experiments except that they were bathed luminally with HCO3^--free Ringer solution that contained no isobutyrate and no Cl^-. Cyclic nucleotide-dependent HCO3^- secretion was calculated as […] (the difference between JHCO3 after minus JHCO3 before the addition of forskolin). When inhibitor was used, it was added at 30 min before […] or forskolin.

[2] = system: colon mucosa of wild type mice; test: HCO3^− secretion in colon mucosa of wild type (CaSR^+/+) mice; design: species or system mouse
Method: FIGS. 13A-13F. […] Colonic mucosa from wild type (CaSR^+/+) (A-C) and knockout (CaSR^-/-) mice (D-F) were isolated and treated, and activities of the three HCO3^- transporters assayed as in rats. Data are means±SEM of 4-6 experiments. *p<0.05 vs. control (1st bar). Experiments were performed using non-fasting male Sprague-Dawley rats and C57BL/6 mice. Rats weighting 100-400 g were obtained from Charles River Laboratories. Mice lacking CaSR expression in intestinal epithelial cells (CaSR^-/-) and their CaSR^+/+ littermates were bred and maintained. CaSR^-/- mice were generated as previously described. Briefly, CaSR flox/flox mice were bred with transgenic mice expressing Cre Recombinase under the control of the villin 1 promoter and genotyped prior to all experiments after an approximate 10-12 generations. Mice were used at 5-10 weeks of age. Animals were fed and maintained on regular chow (Harlan) with free access to water before sacrifice. Animals were sacrificed with standard CO2 inhalation followed by cervical dislocation. The colons were isolated, cut open along the mesenteric border into a flat sheet, and flushed with ice-cold Ringer solutions. Mucosa from the distal colon were carefully hand-stripped off of serosal, muscular and submucosal layers as described and a pair of adjacent mucosal segments were incised and mounted into Ussing chambers. In some experiments, stripped mucosa was incised longitudinally into two equal pieces in order to facilitate comparisons between control and treatment. […] To verify that the effects of […] occurred via the CaSR, additional studies on the effect of […] were performed in intestinal epithelium-specific CaSR knockout mice (FIG. 13). Intestinal epithelium-specific CaSR knockout mice were used together with their wild type littermates.

COc1cccc([C@@H](C)NCCCc2ccccc2Cl)c1.Cl [R568, 2-Chloro-N-[(1R)-1-(3-methoxyphenyl)ethyl]-benzenepropanamine hydrochloride]
effect on FSK-induced HCO3^− secretion ([1]; 10 μM serosa after forskolin, lumen Cl^−/SCFA-free): almost completely reversed | Isc response in the absence of serosal HCO3^− ([1]; no serosal HCO3^− (data not shown)): failed to stimulate or to inhibit | effect on forskolin-stimulated Isc ([1]; subsequent addition after forskolin, lumen Cl^−-free): inhibited | Cl^−-dependent HCO3^− secretion [2]: stimulated | SCFA-dependent HCO3^− secretion [2]: stimulated | cAMP-dependent HCO3^− secretion [2]: inhibited
